Results taken from patent US20230270704A1, “AMINOACIDS FOR TREATMENT OF NEUROLOGICAL DISORDERS” (ScandiBio Therapeutics AB, priority 2020, published 2023).

Experiments:
Caspase 3 = assay: Alzheimer's disease study in HFD + icv STZ rats, immunofluorescence examination of brain tissues (FITC); format: in vivo, Sprague-Dawley rats; conditions: for Caspase-3 expression in immunofluorescence staining: HFD + STZ rats, grade in words; for Caspase 3 (IFA FITC): HFD 5 weeks + STZ 3 mg/kg icv, substances once daily by oral gavage, score
Description: (§1) 12 weeks old female Sprague-Dawley rats (weighing 320-380 g) were kept at a controlled temperature of 22±2° C. and a controlled humidity of 50±5% on a 12-hour light/dark cycle. Food and water were available ad libitum. The animal experiments are performed at Medical Experimental Research Center, Ataturk University, Erzurum, Turkey. All experiments for the treatment of the animals were approved by the Ethics Committee of Atatürk University, and were conducted following the National Institutes of Health Guide for Care and Use of Laboratory Animals.
(§2) After acclimation to laboratory conditions for one (1) week, rats were randomly divided into two dietary regimens receiving either a Chow diet (CD) or a high-fat diet (HFD. The animals of Group 1 (n=4) were fed with only regular CD for five (5) weeks. The animals of Group 2 (n=4) were fed with CD and treated with STZ. The remaining animals (n=4) were fed with HFD for 3 weeks and sacrificed to verify the model development (Group 3). Groups 4-13 were fed with HFD for 5 weeks. After 3 weeks, the animals in Groups 5-13 were treated with STZ and administered with individual or combined substances. The animals in Group 4 were injected (icy) with a control substance (saline) after 3 weeks.
(§3) Before surgical procedures, the rats were anesthetized by intraperitoneal administration of ketamine-xylazine (50 mg/kg ketamine and 5 mg/kg xylazine) and placed individually in the stereotaxic instrument (Stoelting, Ill., USA). Stereotaxic coordinates for injection were 0.8 mm posterior to the bregma, 1.5 mm lateral to the sagittal suture and 3.6 mm below the brain surface (Pellegrino et al. 1979). Then, 10 microliters of STZ (3 mg/kg, Sigma-Aldrich, Darmstadt, Germany) were injected over 3 min with a Hamilton micro-syringe into the bilateral ventricle. The injection needles were left in place for an additional 2 min to allow diffusion.
(§4) For carrying out the treatment experiments, the HFD rats were randomly separated into nine (9) subgroups of four (4) animals (Groups 5-13).
(§5) The body weight of the rats was recorded each week. After 5 weeks, all animals were anesthetized with isoflurane and sacrificed. Blood samples were collected from the abdominal aorta and centrifuged at 8000 rpm for 15 min at 4° C. The plasma was separated and stored at −80° C. until further analysis. Other internal organs, including the heart, adipose tissues, liver, kidney, brain, muscle, intestine (duodenum, ileum, jejunum), pancreas, colon and stomach were immediately removed and then snap-frozen in liquid nitrogen and stored at −80° C.
(§6) Tissue sections taken on adhesive (poly-L-Lysin) slides for immunoperoxidase examination were deparaffinized and […]. After washing the tissues with suppressed endogenous peroxidase activity in 3% H2O2 were boiled in antigen retrieval solution. In order to prevent nonspecific background staining in the sections, protein block compatible with all primary and secondary antibodies was dropped and incubated for 5 minutes. For brain tissues, primary antibody Caspase 3 (Cat No:sc-56053 Dilution Ratio:1/100 US) was dropped and incubated for 1 hour at 37° C. After washing, secondary FITC (Cat No: ab6717 Dilution Ratio:1/500 UK) was dropped and incubated at 37° C. for 30 minutes. The other primary antibody H2A.X (Cat No:I 0856-1 Dilution Ratio:1/100 US) was dropped and incubated at 37° C. for 1 hour. After washing, secondary Texas Red (Cat No: se-3917 Dilution Ratio:1/100 US) was dropped and incubated at 37° C. for 30 minutes. DAPI (Cat No:D-1306 Dilution Ratio:1/200 US) was dripped onto the washed tissues and incubated in the dark for 5 minutes, then glycerin was sealed.

H2A.X = assay: Alzheimer's disease study in HFD + icv STZ rats, immunofluorescence examination of brain tissues (Texas Red); format: in vivo, Sprague-Dawley rats; conditions: for H2A.X expression in immunofluorescence staining: HFD + STZ rats, grade in words; for H2A.X (IFA Texas Red): HFD 5 weeks + STZ 3 mg/kg icv, substances once daily by oral gavage, score
Description: as §1, §2, §3, §4, §5, §6

hepatic steatosis = assay: short-term dietary supplementation with serine in obese subjects with hepatic steatosis; format: in vivo, human
Description: To test the model-based predictions, the present inventors assessed the effect of short-term dietary supplementation with serine on fatty liver and fasting levels of plasma markers of liver functions in six obese subjects (BMI 32.5±2.70 kg/m2) with hepatic steatosis. Each patient received one oral dose of ˜20 g of L-serine (200 mg/kg) per day for 14 days. The supplementation was well-tolerated by all subjects.

8-OHdG = assay: Alzheimer's disease study in HFD + icv STZ rats, immunohistochemical examination of brain tissues; format: in vivo, Sprague-Dawley rats; conditions: for 8 OHdG expression in immunohistochemical staining: HFD + STZ rats, grade in words; for 8-OHdG (IHC): HFD 5 weeks + STZ 3 mg/kg icv, substances once daily by oral gavage, score
Description: as §1, §2, §3, §4, §5
Tissue sections taken on adhesive (poly-L-Lysin) slides for immunoperoxidase examination were deparaffinized and […]. After washing the tissues with suppressed endogenous peroxidase activity in 3% H2O2 were boiled in antigen retrieval solution. In order to prevent nonspecific background staining in the sections, protein block compatible with all primary and secondary antibodies was dropped and incubated for 5 minutes. 8-OHdG (Cat no: sc-66036 dilution ratio: 1/100 US) was used as the primary antibody for brain tissues.

brain tissues = assay: Alzheimer's disease study in HFD + icv STZ rats, histopathology (HE) of brain tissues; format: in vivo, Sprague-Dawley rats
Description: as §1, §2, §3, §4, §5
Tissue samples obtained as a result of the experimental procedure were fixed in 10% buffered formalin solution for 48 hours. Following the routine tissue procedure, the tissues were embedded in paraffin blocks and 4 μm thick sections were taken from each block. Preparations prepared for histopathological examination were stained with hematoxylin-eosin (HE) and examined with a light microscope (Olympus BX51, Germany).

[1] = fasting plasma marker of liver function, after 14 days of ~20 g/day oral L-serine
[2] = brain tissues, HFD 5 weeks + STZ 3 mg/kg icv, substances once daily by oral gavage, score

| SMILES | Caspase-3 expression in immunofluorescence staining (Caspase 3) | H2A.X expression in immunofluorescence staining (H2A.X) | liver fat after supplementation (hepatic steatosis; after 14 days of ~20 g/day oral L-serine, decreased significantly from 26.8±6.0% before) [%] | ALP level (hepatic steatosis; [1]) | ALT level (hepatic steatosis; [1]) | AST level (hepatic steatosis; [1]) | tolerability of the supplementation (hepatic steatosis; six obese subjects, one oral dose of ~20 g L-serine (200 mg/kg) per day for 14 days) | 8 OHdG expression in immunohistochemical staining (8-OHdG) | degeneration in neurons (brain tissues; HFD + STZ rats, grade in words) | hyperemia in brain tissues (brain tissues; HFD + STZ rats, grade in words) | necrosis in neurons (brain tissues; HFD + STZ rats, grade in words) | Caspase 3 (IFA FITC) (Caspase 3) | H2A.X (IFA Texas Red) (H2A.X) | 8-OHdG (IHC) (8-OHdG) | Hyperemia (brain tissues; [2]) | degeneration in neurons (brain tissues; [2]) | necrosis in neurons (brain tissues; [2]) |
| --- | --- | --- | --- | --- | --- | --- | --- | --- | --- | --- | --- | --- | --- | --- | --- | --- | --- |
| N[C@@H](CO)C(=O)O [Group 6, serine] | moderate | moderate | 20.4±7.0 | significantly decreased | significantly decreased | significantly decreased | well-tolerated | moderate | moderate | Moderate | mild | – | – | – | – | – | – |
| NC(CO)C(=O)O (centres unmarked) [Group 6] | – | – | – | – | – | – | – | – | – | – | – | +++ (moderate (+++)) | +++ (moderate (+++)) | +++ (moderate (+++)) | +++ (moderate (+++)) | +++ (moderate (+++)) | ++ (mild (++)) |
| CC(=O)N[C@@H](CS)C(=O)O [Group 7, N-acetyl-L-cysteine, reference compound] | moderate | moderate | – | – | – | – | – | moderate | severe | Severe | moderate | – | – | – | – | – | – |
| CC(=O)NC(CS)C(=O)O (centres unmarked) [Group 7] | – | – | – | – | – | – | – | – | – | – | – | +++ (moderate (+++)) | +++ (moderate (+++)) | +++ (moderate (+++)) | ++++ (severe (++++)) | ++++ (severe (++++)) | +++ (moderate (+++)) |
| C[N+](C)(C)C[C@H](O)CC(=O)[O-].O=C(O)C(O)C(O)C(=O)O [Group 8, L-carnitine tartrate, reference compound] | moderate | moderate | – | – | – | – | – | moderate | moderate | Moderate | mild | – | – | – | – | – | – |
| C[N+](C)(C)CC(O)CC(=O)O.C[N+](C)(C)CC(O)CC(=O)O.O=C([O-])C(O)C(O)C(=O)[O-] (centres unmarked) [Group 8] | – | – | – | – | – | – | – | – | – | – | – | +++ (moderate (+++)) | +++ (moderate (+++)) | +++ (moderate (+++)) | +++ (moderate (+++)) | +++ (moderate (+++)) | ++ (mild (++)) |
| NC(=O)c1ccc[n+]([C@@H]2O[C@H](CO)[C@@H](O)[C@H]2O)c1.[Cl-] [Group 9, nicotinamide riboside chloride] | moderate | moderate | – | – | – | – | – | moderate | moderate | Moderate | mild | – | – | – | – | – | – |
| NC(=O)c1ccc[n+](C2OC(CO)C(O)C2O)c1.[Cl-] (centres unmarked) [Group 9] | – | – | – | – | – | – | – | – | – | – | – | +++ (moderate (+++)) | +++ (moderate (+++)) | +++ (moderate (+++)) | +++ (moderate (+++)) | +++ (moderate (+++)) | ++ (mild (++)) |
